pIC50: −log10 of the molar value.
Molecular target: Proto-oncogene tyrosine-protein kinase Src (Homo sapiens, UniProt P12931)
Experiment: Kinase inhibition Assay
Settings: pH 7.5; 30 °C
Experimental: Src kinase activity was measured in an ELISA format. IC50 is the inhibitor concentration which inhibits 50% of kinase activity that catalyzes the transfer of the terminal phosphate from ATP to the substrate.

Chain of Proto-oncogene tyrosine-protein kinase Src (P12931 2-536 limits assumed): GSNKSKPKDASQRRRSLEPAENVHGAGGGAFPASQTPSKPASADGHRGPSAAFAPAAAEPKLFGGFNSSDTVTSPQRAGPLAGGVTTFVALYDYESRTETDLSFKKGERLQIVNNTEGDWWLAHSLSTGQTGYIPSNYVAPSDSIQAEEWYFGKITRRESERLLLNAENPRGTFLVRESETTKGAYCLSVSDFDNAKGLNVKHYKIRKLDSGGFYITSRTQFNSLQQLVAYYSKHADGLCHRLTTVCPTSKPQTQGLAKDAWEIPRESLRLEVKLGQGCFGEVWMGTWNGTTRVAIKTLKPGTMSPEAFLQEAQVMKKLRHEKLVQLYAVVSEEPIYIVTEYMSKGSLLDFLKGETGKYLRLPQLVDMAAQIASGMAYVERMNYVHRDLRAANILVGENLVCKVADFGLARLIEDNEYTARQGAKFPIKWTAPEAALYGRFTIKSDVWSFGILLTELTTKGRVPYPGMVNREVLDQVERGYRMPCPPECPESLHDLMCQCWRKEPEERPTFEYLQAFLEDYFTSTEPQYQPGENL

Row | pIC50 | SMILES
1 | 8.38 | COc1cc(Nc2c(C#N)cnc3cc(-c4ccc(CN5CCCCC5)s4)ccc23)c(Cl)cc1Cl [4-[(2,4-dichloro-5-methoxyphenyl)amino]-7-[5-(piperidin-1-ylmethyl)thiophen-2-yl]quinoline-3-carbonitrile]
2 | 8.36 | COc1cc(Nc2c(C#N)cnc3cc(-c4ccc(CN5CCSCC5)s4)ccc23)c(Cl)cc1Cl [4-[(2,4-dichloro-5-methoxyphenyl)amino]-7-[5-(thiomorpholin-4-ylmethyl)thiophen-2-yl]quinoline-3-carbonitrile]
3 | 8.70 | COc1cc(Nc2c(C#N)cnc3cc(-c4ccc(CN5CCC(O)CC5)s4)ccc23)c(Cl)cc1Cl [4-[(2,4-dichloro-5-methoxyphenyl)amino]-7-{5-[(4-hydroxypiperidin-1-yl)methyl]thiophen-2-yl}quinoline-3-carbonitrile]

Source: BindingDB's records for doi:10.1016/s0960-894x(02)00302-5 (Wyeth Research, 2002)
